Literature values, collected in patent US20190142979A1, “CONTRAST MEDIUM AND METHODS INVOLVED IN PREPARATION FOR THE DETERMINATION OF PATENCY OF CONDUITS” (priority 2016, published 2019).

CCN(CC)CC(=O)Nc1c(C)cccc1C [Lidocaine]
alteration of fertility levels (post administration): not reported
safety (upon injection into uterine cavity or into peritoneal cavity): highly safe
